Measured values published in US10954287B2, “Ras binding peptides and methods of use” (Ra Pharmaceuticals, Inc., priority 2016, dated 2021).
Where two headings read alike, the source gives them in different places.

What was measured:
K-Ras G12D = biological target: T1, K-Ras G12D (Homo sapiens, UniProt P01116, G12D); assay: Surface plasmon resonance (SPR) binding to immobilized K-Ras; settings: for Kd / kd / kon: 25° C.; for kon: read-out: ka
T1 construct: For K-Ras, the construct was full-length; made in house
Description: Surface Plasmon Resonance (SPR) experiments were conducted at 25° C. using the ProteOn XPR36 system from BioRad Laboratories, Inc (Hercules, Calif.). […] Kinetic characterization of cyclomimetic binding was performed to determine kon, koff, and Kd. […] was co-injected with RAF-RBD to evaluate competitive binding. Data analysis was performed using BioRad ProteOn Manager software.

H-Ras = biological target: T2, H-Ras (Homo sapiens, UniProt P01112, G12V); assay: Differential scanning fluorimetry (DSF); type: binding; settings: Ras 5 μM, peptide 20 μM, FIG. 8A
T2 construct: made in house; host or cells: E. coli BL21 (DE3)
Description: Differential scanning fluorimetry (DSF) is based on denaturation of the protein in the absence or presence of a ligand, exposing hydrophobic residues that can be detected with high sensitivity with a fluorescent dye. […] DSF was performed on a CFX 96-well plate, real-time PCR instrument (Bio-Rad, Hercules, Calif.) according to Nettleship et al. [Nettleship, J. E., Brown, J., Groves, M. R., and Geerlof, A. (2008) Methods for protein characterization by mass spectrometry, thermal shift (ThermoFluor) assay, and multiangle or static light scattering. Methods Mol. Biol. 426: 299-318), the contents of which are incorporated herein by reference in their entirety]. SYPRO orange was purchased from Life Technologies (Carlsbad, Calif.). After incubation of Ras (5 μM) and peptide (20 μM) at room temperature for 15 minutes in 20 mM Tris-HCl (pH 8), 150 mM NaCl, 1 mM MgCl2, 2 mM DTT, and 0.2% dimethyl sulfoxide, SYPRO orange was added to the final concentration of 10× (original stock at 5000×). The mixture was subsequently heated in Bio-Rad CFX 96 PCR instrument from 25 to 95° C. in increments of 0.3° C./10 s. Fluorescence intensity was measured using excitation and emission wavelengths of 483 and 610 nm, respectively. Changes in protein thermal stability (ATm) upon peptide binding were analyzed by using Bio-Rad CFX Manager Software provided by the manufacturer.

[1] = Compound stability in mouse plasma; type: in vitro ADME; settings: serum (method text and assay name say plasma), 37° C., pH 7.4
Description: Compounds were assayed for stability in mouse and rat plasma under the following conditions. Plasma was adjusted to pH 7.4. DMSO stocks at 10 mM concentration were prepared for the test compounds. Aliquots of the DMSO solutions were dosed into 1 mL of plasma, which had been pre-warmed to 37° C., at a final test compound concentration of 10 μM. The vials were kept in a benchtop Thermomixer® (Eppendorf, Hauppauge, N.Y.) for the duration of the experiment. Aliquots (100 μL) were taken at each timepoint and added to a 96-well plate that had been pre-filled with 300 μL of an acetonitrile solution containing mixture of the internal standards (metoprolol, propranalol and warfarin each at 500 ng/mL). Samples were stored at 4° C. until the end of the experiment. After the final timepoint was sampled, the plate was mixed and then centrifuged at 3,000 rpm for 10 minutes. Aliquots of the supernatant were removed and analyzed by LC-HRAMS.

[2] = test system: GMPPNP-loaded H-Ras or GTP-loaded K-Ras; assay: Fluorescence polarization competition assay with TAMRA-labeled probe R4007; type: binding, human; settings: 120 nM Ras
Procedure, shortened: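 120 nM GMPPNP-loaded H-Ras or GTP-loaded K-Ras was preincubated with 30 nM TAMRA-labeled R4007 probe for 20 min at room temperature in Tris pH 7.5 buffer with MgCl2, EDTA and Triton X-100. Serially diluted competitor was then added for 60 min. Polarization was read at 535/595 nm, with Ki from a one-site Ki fit and IC50 from probe displacement.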

Kd (K-Ras G12D; K-Ras G12D loaded with GDP): 0.0044 µM
kd (K-Ras G12D; K-Ras G12D loaded with GDP): 0.003 s⁻¹
kon (K-Ras G12D; K-Ras G12D loaded with GDP): 680000 M⁻¹ s⁻¹
Kd (K-Ras G12D; K-Ras G12D loaded with GMPPNP): 0.0028 µM
kd (K-Ras G12D; K-Ras G12D loaded with GMPPNP): 0.0016 s⁻¹
kon (K-Ras G12D; K-Ras G12D loaded with GMPPNP): 570000 M⁻¹ s⁻¹
competitive binding on co-injection with RAF-RBD (K-Ras G12D; R4000 co-injected with RAF-RBD, FIG. 7A): additive signals
Δ Tm (H-Ras): +11 °C
half-life at 10 μM [1]: 5 h
IC50 ([2]; 30 nM R4007, FIG. 7B, read-out: half-maximal inhibitory concentration (IC50) for displacement of R4007): 20 nM
IC50 ([2]; 30 nM probe R4007, 60 minutes at room temperature, read-out: Probe displacement (nM IC50)): 28.6 nM
SMILES: CCC[C@H](NC(C)=O)C(=O)N[C@H]1CSCc2cccc(c2)CSC[C@@H](C(N)=O)NC(=O)CN(C)C(=O)[C@H](Cc2ccc(F)cc2)N(C)C(=O)[C@H](Cc2ccc(O)cc2)NC(=O)[C@H](Cc2c[nH]c3ncccc23)NC(=O)[C@H](c2ccccc2)NC(=O)[C@H](C)N(C)C(=O)[C@H](Cc2cnc[nH]2)NC(=O)[C@H](CCCCN)NC(=O)[C@H](C(C)(C)C)NC(=O)[C@H](Cc2ccc(O)cc2)NC1=O (relative stereo) [Compound R4000, ACE-NVA-CYS*-TYR-TBG-LYS-HIS-NMA-PHG-7AW-TYR-MFF-SAR-CYS*-NH2]
